The values that follow come from ChEMBL document CHEMBL3997846, “Synthesis and activity of nucleoside-based antiprotozoan compounds” (Bioorg Med Chem, 2017).

Data set [1] deals with Leishmania donovani. Briefly: Antileishmanial activity against Leishmania donovani MHOM/SD/62/ISCL2D axenic amastigotes after 72 hrs by alamar blue assay. The data set is classed as functional. For orientation: Resazurin is reduced to fluorescent resorufin, in cell work by metabolically active cells.
Data set [2] can be described thus: Selectivity index, ratio of IC50 for rat L6 cells to IC50 for Leishmania donovani MHOM/SD/62/ISCL2D axenic amastigotes. The data set is classed as toxicity. As to conditions: read-out: Ratio IC50.
Data set [3] is described as follows: Selectivity index, ratio of IC50 for rat L6 cells to IC50 for chloroquine resistant Plasmodium falciparum K1 erythrocytic stage. Type of data set: toxicity. Particulars: read-out: Ratio IC50.
Data set [4] concerns Trypanosoma cruzi. The data set can be described thus: Antitrypanosomal activity against Trypanosoma cruzi Tulahuen strain C2C4 amastigote forms harboring LacZ infected in rat L6 cells after 96 hrs by CPRG/Nonidet reagent based photometric method. Type of data set: functional, cell-based. Particulars: Tulahuen strain C2C4, L6, 96 h.
In data set [5] the test system is Plasmodium falciparum. The data set can be described thus: Antiplasmodial activity against chloroquine resistant Plasmodium falciparum K1 erythrocytic stage assessed as reduction in [3H]hypoxanthine incorporation after 48 hrs by liquid scintillation counting assay. The data set is classed as functional.
The nature of data set [6]: Selectivity index, ratio of IC50 for rat L6 cells to IC50 for Trypanosoma cruzi Tulahuen strain C2C4 amastigote forms harboring LacZ infected in rat L6 cells. Type of data set: toxicity, cell-based. Particulars: read-out: Ratio IC50.
For data set [7], the system named is Trypanosoma brucei rhodesiense. Briefly: Antitrypanosomal activity against bloodstream forms of Trypanosoma brucei rhodesiense STIB900 trypomastigotes after 72 hrs by alamar blue assay. The data set is classed as functional. Particulars: STIB900, 72 h.
Data set [8] is described as follows: Selectivity index, ratio of IC50 for rat L6 cells to IC50 for bloodstream forms of Trypanosoma brucei rhodesiense STIB900 trypomastigotes. Type of data set: toxicity. As to conditions: read-out: Ratio IC50.
In data set [9] the test system is L6. Briefly: Cytotoxicity against rat L6 cells assessed as growth inhibition after 72 hrs by alamar blue assay. The data set is classed as cell-based. Particulars: L6, 72 h.

Each structure is given as a SMILES string.

With `CC(=O)O[C@@H]1[C@H](OC(C)=O)[C@@H](CN2C(=O)c3ccccc3C2=O)O[C@H]1n1cnc2c(N)nc(F)nc21`, the IC50 in [1] is greater than 200 µM; in data set [4], 103 µM; in [5], 45 µM; in data set [7], 160 µM; in data set [9], 129 µM. Also, the selectivity ratio in data set [2] is less than 0.6; in data set [3], 3; in data set [6], 1; in [8], 0.8.

For `Nc1nc([Se][Se]c2nc(N)nc3c2ccn3[C@@H]2O[C@H](CO)[C@@H](O)[C@H]2O)c2ccn([C@@H]3O[C@H](CO)[C@@H](O)[C@H]3O)c2n1`, the IC50 is greater than 145 µM in [1]; 21 µM in data set [4]; 20.5 µM in data set [5]; 9.6 µM in data set [7]; 24 µM in data set [9]. Further, the selectivity ratio in [2] is less than 0.2; in data set [3], 1; in data set [6] it was 1; in [8], 3.

Take `CC(=O)NC[C@H]1O[C@@H](n2cnc3c(N)nc(F)nc32)[C@H](OC(C)=O)[C@@H]1OC(C)=O`: the IC50 in data set [1] is greater than 240 µM; in data set [4], 106 µM; in data set [5], 37 µM; in [7], 115 µM; in data set [9] it was 138 µM. Also, the selectivity ratio is less than 0.6 in data set [2], 4 in data set [3], 1 in data set [6] and 1 in data set [8].

`CSC[C@H]1O[C@@H](n2cnc3c(N)nc(Cl)nc32)[C@H](OC(C)=O)[C@@H]1OC(C)=O`: the IC50 in data set [1] is 39 µM; in data set [4], 161 µM; in data set [5], 12 µM; in data set [7], 31 µM; in data set [9], 216 µM. Moreover, the selectivity ratio in data set [2] was determined as 6; in data set [3], 18; in data set [6], 1; in data set [8] it was 7.

On to `[N-]=[N+]=NC[C@H]1O[C@@H](n2cnc3c(N)nc(F)nc32)[C@H](O)[C@@H]1O`, for which the IC50 stood at 1 µM in data set [1]; 13 µM in data set [4]; 0.89 µM in [5]; 22 µM in data set [7]; 3.1 µM in [9]. The selectivity ratio in data set [2] is 3; in data set [3], 3; in data set [6], 0.2; in data set [8], 0.1.

Regarding `CC(=O)NC[C@H]1O[C@@H](n2cnc3c(N)nc(Cl)nc32)[C@H](O)[C@@H]1O`, the IC50 in data set [1] was greater than 280 µM; in [4], 174 µM; in data set [5], 88 µM; in data set [7], 79 µM; in data set [9], 189 µM. In addition, the selectivity ratio was less than 0.7 in data set [2], 2 in data set [3], 1 in data set [6] and 2 in data set [8].

`CS(=O)(=O)C[C@H]1O[C@@H](n2cnc3c(N)nc(Cl)nc32)[C@H](O)[C@@H]1O`: the IC50 in [1] is greater than 275 µM; in [4], 156 µM; in [5], 25 µM; in data set [7] it was 126 µM; in data set [9], 156 µM. For the same compound, the selectivity ratio in [2] is less than 0.6; in data set [3], 6; in data set [6], 1; in [8], 1.

As for `CC(=O)O[C@@H]1[C@H](OC(C)=O)[C@@H](CI)O[C@H]1n1cnc2c(N)nc(F)nc21`, the IC50 turned out to be 9.2 µM in data set [1]; 14 µM in data set [4]; 1.1 µM in data set [5]; 15 µM in data set [7]; 6.3 µM in data set [9]. The selectivity ratio worked out at 0.7 in [2], 6 in [3], 0.4 in data set [6] and 0.4 in data set [8].

On to `CNc1nc(N)nc2c1ncn2[C@@H]1O[C@H](CSC)[C@@H](O)[C@H]1O`, for which the IC50 is greater than 318 µM in [1]; 22 µM in data set [4]; 29 µM in data set [5]; 290 µM in [7]; 165 µM in data set [9]. The selectivity ratio in [2] turned out to be 0.5; in data set [3], 6; in data set [6] it was 8; in data set [8] it was 0.6.

As to `Nc1nc2c(ccn2[C@@H]2O[C@H](CO)[C@@H](O)[C@H]2O)c(=S)[nH]1`, the IC50 was greater than 335 µM in [1]; 71 µM in [4]; greater than 168 µM in [5]; 61 µM in [7]; 185 µM in data set [9]. For the same compound, the selectivity ratio in data set [2] is less than 0.6; in data set [3] it was less than 1; in [6] it was 3; in data set [8], 3.

With `CS(=O)(=O)C[C@H]1O[C@@H](n2cnc3c(N)nc(F)nc32)[C@H](O)[C@@H]1O`, the IC50 in data set [1] stood at 37 µM; in data set [4] it was 35 µM; in data set [5] it was 8 µM; in data set [7] it was 17 µM; in data set [9], 5 µM. The selectivity ratio in [2] was found to be 0.1; in data set [3], 0.6; in data set [6], 0.1; in [8], 0.3.

Consider `C[S+]([O-])C[C@H]1O[C@@H](n2cnc3c(N)nc(Cl)nc32)[C@H](O)[C@@H]1O` (stereo not given in full), for which the IC50 in data set [1] is greater than 260 µM; in [4] it was greater than 260 µM; in data set [5], 14 µM; in data set [7], 75 µM; in data set [9], 259 µM. For the same compound, the selectivity ratio is less than 1 in data set [2], 18 in data set [3], less than 1 in [6] and 3 in [8].

With `C[S+]([O-])C[C@H]1O[C@@H](n2cnc3c(N)nc(F)nc32)[C@H](O)[C@@H]1O` (stereo not given in full), the IC50 in [1] amounted to 33 µM; in data set [4], 74 µM; in [5] it was 5.8 µM; in data set [7], 34 µM; in data set [9], 13 µM. Also, the selectivity ratio in [2] is 0.4; in [3], 2; in data set [6] it was 0.2; in [8], 0.4.

For the compound `[N-]=[N+]=NC[C@H]1O[C@@H](n2cnc3c(N)nc(Cl)nc32)[C@H](O)[C@@H]1O`, the IC50 in data set [1] is 193 µM; in data set [4] it was 76 µM; in data set [5], 9.8 µM; in data set [7], 56 µM; in data set [9], 155 µM. Moreover, the selectivity ratio in data set [2] came to 0.8; in data set [3], 16; in [6], 2; in data set [8], 3.

`CC(=O)O[C@@H]1[C@H](OC(C)=O)[C@@H](CN=[N+]=[N-])O[C@H]1n1cnc2c(N)nc(Cl)nc21`: the IC50 stood at 114 µM in data set [1]; 93 µM in data set [4]; 13 µM in [5]; 64 µM in data set [7]; 141 µM in [9]. Moreover, the selectivity ratio in data set [2] worked out at 1; in [3] it was 11; in [6], 2; in data set [8] it was 2.

For `CC(=O)O[C@@H]1[C@H](OC(C)=O)[C@@H](CN=[N+]=[N-])O[C@H]1n1cnc2c(N)nc(F)nc21`, the IC50 in [1] is 33 µM; in data set [4], 39 µM; in [5], 1.5 µM; in data set [7], 23 µM; in data set [9] it was 18 µM. Besides, the selectivity ratio was determined as 0.5 in data set [2], 12 in data set [3], 0.5 in [6] and 0.8 in data set [8].

Take `CC(=O)NC[C@H]1O[C@@H](n2cnc3c(N)nc(F)nc32)[C@H](O)[C@@H]1O`: the IC50 in [1] was 117 µM; in [4], 178 µM; in [5], 19 µM; in [7], greater than 300 µM; in data set [9], 182 µM. Besides, the selectivity ratio was 2 in data set [2], 10 in [3], 1 in data set [6] and less than 0.6 in data set [8].

Consider `CC(=O)O[C@@H]1[C@H](OC(C)=O)[C@@H](CS(C)(=O)=O)O[C@H]1n1cnc2c(N)nc(Cl)nc21`, for which the IC50 in [1] is greater than 200 µM; in data set [4] it was greater than 200 µM; in [5], 10 µM; in data set [7], 14 µM; in data set [9], 114 µM. In addition, the selectivity ratio was less than 0.6 in data set [2], 11 in [3], less than 0.6 in data set [6] and 8 in data set [8].

`COc1nc(I)nc2c1ncn2[C@@H]1O[C@H](C)[C@@H](O)[C@H]1O`: the IC50 in data set [1] was 126 µM; in data set [4], 113 µM; in data set [5], 65 µM; in data set [7], 108 µM; in data set [9] it was 158 µM. Further, the selectivity ratio was 1 in data set [2], 2 in data set [3], 1 in data set [6] and 2 in data set [8].

Turning to `CC(=O)O[C@@H]1[C@H](OC(C)=O)[C@@H](C[S+](C)[O-])O[C@H]1n1cnc2c(N)nc(Cl)nc21` (stereo not given in full), the IC50 in data set [1] is greater than 230 µM; in [4], 106 µM; in [5], 106 µM; in [7], 106 µM; in data set [9], 168 µM. Further, the selectivity ratio in [2] is less than 0.7; in [3] it was 2; in data set [6], 2; in data set [8], 2.

In general, IC50 refers to the concentration that inhibits the measured activity by half.
